The values below come from ChEMBL document CHEMBL1201862, “PubChem BioAssay data set” (2004).

Some test systems named below: A549; CCRF-CEM; HCT-15; HT-29; MOLT-4; NCI-H226; NCI-H460; OVCAR-3; RPMI-8226; SK-MEL-2; SK-MEL-5; SK-OV-3; SNB-75; SW-620; U-251; UACC-257; UACC-62; 786-0; M14; TK-10.
Holding throughout (experiment): NCI tumour cell line growth inhibition, 48 h

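Tested at 5 concentrations; 48 h exposure; 96-well plates; endpoints linearly interpolated, else capped at highest concentration. Here, GI50 denotes the concentration required for 50% inhibition of growth.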 Activity calls are given as the source filed them. Rule as the data show it: active = GI50 up to about 1.1 µM and inactive = higher. Some results are limits rather than exact numbers.

Consider `COc1cc(/C=C/C(=O)O)ccc1C(=O)OCc1ccccc1`, for which the GI50 with A549 was > 100 µM (inactive); in the assay with CCRF-CEM it was > 100 µM (inactive); in the assay on HCT-15 it was over 100 µM; in the assay on HT-29, > 100 µM (inactive); in the assay on MOLT-4 it was > 100 µM (inactive); with NCI-H226 it was > 100 µM (inactive). Also, the GI50 in the assay on NCI-H460, in the assay on OVCAR-3, in the assay with RPMI-8226, with SK-MEL-2, in the assay with SK-MEL-5 and in the assay with SK-OV-3 was > 100 µM (inactive) in each case. The GI50 with SNB-75, in the assay with SW-620, in the assay with U-251, with UACC-257 and in the assay with UACC-62 was > 100 µM (inactive) each time.
Turning to `COC(=O)C1=C(O)c2cc3c(cc2[C@H](c2cc(OC)c(OC)c(OC)c2)C1C(=O)OC)OCO3` (some centres not stated), the GI50 in the assay with 786-0 is 42.7 µM (inactive); with A549, > 100 µM (inactive); in the assay on CCRF-CEM, > 100 µM (inactive); in the assay on HCT-15, over 100 µM; in the assay on HT-29, 95.5 µM (inactive); with M14, 89.5 µM (inactive). Besides, the GI50 in the assay with MOLT-4 was 58.9 µM (inactive); with NCI-H226 it was 33 µM (inactive); in the assay on NCI-H460, 61 µM (inactive); in the assay on OVCAR-3 it was 30.4 µM (inactive); in the assay with RPMI-8226, > 100 µM (inactive); in the assay on SK-MEL-5, 32.8 µM (inactive). The GI50 is 44.1 µM (inactive) in the assay on SK-OV-3; 22.8 µM (inactive) with SNB-75; 80.2 µM (inactive) in the assay with SW-620; 31.3 µM (inactive) with TK-10; 82.8 µM (inactive) with U-251; 47.3 µM (inactive) with UACC-257. For the same compound, in the assay on UACC-62, the GI50 was 30.1 µM (inactive).
With `CC(C)C(=O)Nc1cc(C(F)(F)F)ccc1[N+](=O)[O-]`, the GI50 in the assay with 786-0 is > 100 µM (inactive); in the assay on A549, > 100 µM (inactive); with CCRF-CEM, > 100 µM (inactive); in the assay on HCT-15 it was over 100 µM; in the assay with HT-29 it was > 100 µM (inactive); with M14, > 100 µM (inactive). Moreover, the GI50 in the assay with MOLT-4 is > 100 µM (inactive); in the assay on NCI-H226, > 100 µM (inactive); in the assay on NCI-H460 it was 72.6 µM (inactive); with OVCAR-3, > 100 µM (inactive); with RPMI-8226 it was 72.8 µM (inactive); in the assay on SK-MEL-2 it was > 100 µM (inactive). Moreover, the GI50 in the assay on SK-MEL-5, in the assay with SK-OV-3, in the assay with SW-620, in the assay with TK-10, in the assay on U-251 and in the assay with UACC-257 was > 100 µM (inactive) each time. Also, the GI50 in the assay on UACC-62 was > 100 µM (inactive).
On to `O=C1c2ccccc2C(=O)c2c1sc1nc3ccccc3n21`, for which the GI50 was 2.15 µM (inactive) with 786-0; 10.7 µM (inactive) with A549; 1.94 µM (inactive) in the assay with CCRF-CEM; 1.36 µM in the assay on HCT-15; 3.9 µM (inactive) in the assay on HT-29; 1.73 µM (inactive) in the assay with M14. In addition, the GI50 with MOLT-4 was 1.97 µM (inactive); in the assay with NCI-H226, 5.68 µM (inactive); in the assay with NCI-H460 it was 1.79 µM (inactive); in the assay on OVCAR-3, 2.86 µM (inactive); in the assay on RPMI-8226, 1.33 µM (inactive); with SK-MEL-5, 16.5 µM (inactive). Further, the GI50 with SK-OV-3 is 6.87 µM (inactive); in the assay on SNB-75, 13.1 µM (inactive); with TK-10, 4.19 µM (inactive); in the assay on U-251, 3.52 µM (inactive); in the assay with UACC-257 it was 1.88 µM (inactive); in the assay on UACC-62 it was 1.87 µM (inactive).
Regarding `COc1cc2c(cc1OC)-c1c3c(cc4c1[C@@H](C2)N(C)CC4)OCO3`, the GI50 is 3.34 µM (inactive) in the assay on A549; 3.96 µM (inactive) in the assay with CCRF-CEM; 5.77 µM in the assay on HCT-15; 6.4 µM (inactive) with HT-29; 3.85 µM (inactive) in the assay on MOLT-4; 7.06 µM (inactive) with NCI-H226. The GI50 in the assay with NCI-H460 is 2.53 µM (inactive); in the assay on OVCAR-3 it was 13.6 µM (inactive); in the assay with RPMI-8226, 5.74 µM (inactive); with SK-MEL-2, 10.9 µM (inactive); in the assay on SK-MEL-5, 7.52 µM (inactive); in the assay with SK-OV-3, 12.1 µM (inactive). The GI50 in the assay on SNB-75 is 7.29 µM (inactive); with SW-620 it was 3.92 µM (inactive); in the assay with U-251, 10.8 µM (inactive); in the assay with UACC-257, 11.6 µM (inactive); in the assay on UACC-62 it was 8.38 µM (inactive).
With `CN(C)CCNC(=O)c1cccc2cc3cc(O)ccc3nc12`, the GI50 in the assay with A549 was 0.811 µM (active); in the assay with CCRF-CEM, 0.59 µM (active); in the assay with HCT-15, 1.23 µM; in the assay with HT-29, 1.02 µM (active); with MOLT-4, 0.147 µM (active); in the assay on NCI-H226, 0.621 µM (active). Moreover, the GI50 with NCI-H460 is 0.361 µM (active); with OVCAR-3, 1.13 µM (inactive); in the assay on RPMI-8226 it was 1.36 µM (inactive); with SK-MEL-2, 2.14 µM (inactive); in the assay on SK-MEL-5, 1.23 µM (inactive); in the assay on SK-OV-3, 1.46 µM (inactive). In addition, the GI50 was 1.93 µM (inactive) with SNB-75; 0.611 µM (active) in the assay with SW-620; 1.36 µM (inactive) in the assay with U-251; 1.26 µM (inactive) in the assay on UACC-257; 1.33 µM (inactive) in the assay on UACC-62.
For `CN(C)CCNC(=O)c1cccc2c1nc(-c1cccnc1)c1ccccc12`, the GI50 in the assay on 786-0 is 5.04 µM (inactive); with A549, 1.21 µM (inactive); in the assay with CCRF-CEM it was 4.29 µM (inactive); in the assay with HCT-15, 3.74 µM; with HT-29 it was 3.76 µM (inactive); in the assay with M14 it was 6.67 µM (inactive). The GI50 in the assay with MOLT-4 was 0.311 µM (active); in the assay on NCI-H226, 2.3 µM (inactive); in the assay on NCI-H460, 0.303 µM (active); with OVCAR-3 it was 10.1 µM (inactive); with SK-MEL-2, 10.6 µM (inactive); in the assay with SK-MEL-5, 3.37 µM (inactive). The GI50 is 10 µM (inactive) in the assay on SK-OV-3; 9.35 µM (inactive) in the assay on SNB-75; 2.17 µM (inactive) in the assay on SW-620; 2.25 µM (inactive) with TK-10; 3.75 µM (inactive) in the assay on U-251; 3.89 µM (inactive) in the assay on UACC-257. For the same compound, the GI50 in the assay with UACC-62 was 3.57 µM (inactive).
Regarding `CN(C)CN1C(=O)/C(=N\n2c(S)nnc2-c2ccncc2)c2ccccc21`, the GI50 in the assay on 786-0 is 16.9 µM (inactive); in the assay with A549, 55 µM (inactive); with CCRF-CEM it was 9.38 µM (inactive); in the assay with HCT-15 it was 28.1 µM; in the assay with HT-29, 22.2 µM (inactive); in the assay on M14, 24.8 µM (inactive). The GI50 in the assay on MOLT-4 was 12.1 µM (inactive); in the assay on NCI-H226 it was > 100 µM (inactive); with NCI-H460, 38.3 µM (inactive); in the assay on OVCAR-3, 66.5 µM (inactive); with SK-MEL-2 it was 21.4 µM (inactive); with SK-MEL-5, 39.4 µM (inactive). Moreover, the GI50 is 31.7 µM (inactive) with SK-OV-3; 38.5 µM (inactive) in the assay with SNB-75; 18.8 µM (inactive) with SW-620; 41.9 µM (inactive) with TK-10; 38.8 µM (inactive) in the assay with U-251; 15.5 µM (inactive) in the assay on UACC-257. The GI50 in the assay on UACC-62 is 42.4 µM (inactive).
On to `COC(=O)C#CCC1CCCC1C1SCCS1` (configuration not stated), for which the GI50 with 786-0 was > 100 µM (inactive); in the assay on A549 it was > 100 µM (inactive); with CCRF-CEM it was 29.2 µM (inactive); with HT-29 it was > 100 µM (inactive); in the assay with M14, > 100 µM (inactive); in the assay on MOLT-4, 21.2 µM (inactive). For the same compound, the GI50 in the assay with NCI-H226 was > 100 µM (inactive); in the assay on OVCAR-3, 88.3 µM (inactive); with SK-MEL-2 it was 26.2 µM (inactive); with SK-MEL-5 it was > 100 µM (inactive); in the assay with SK-OV-3 it was > 100 µM (inactive); with SNB-75 it was > 100 µM (inactive). Besides, the GI50 was > 100 µM (inactive) with SW-620; > 100 µM (inactive) with TK-10; 59.6 µM (inactive) in the assay with U-251; 51.3 µM (inactive) in the assay with UACC-257; 35.8 µM (inactive) in the assay on UACC-62.
`COC(C(O)c1ccc2c(c1)OCO2)P(=O)(c1ccccc1)c1ccccc1` (configuration not stated): the GI50 in the assay with 786-0 is > 100 µM (inactive); in the assay with CCRF-CEM, > 100 µM (inactive); with HT-29 it was > 100 µM (inactive); in the assay on M14 it was > 100 µM (inactive); with MOLT-4, > 100 µM (inactive); in the assay on NCI-H226, 73.1 µM (inactive). The GI50 was > 100 µM (inactive) in the assay on NCI-H460; 15.1 µM (inactive) in the assay with OVCAR-3; > 100 µM (inactive) in the assay on SK-MEL-2; > 100 µM (inactive) in the assay on SK-MEL-5; > 10 µM (inactive) in the assay with SK-OV-3; 35.9 µM (inactive) in the assay on SNB-75. In addition, the GI50 in the assay with SW-620 is > 100 µM (inactive); with TK-10, > 100 µM (inactive); in the assay with U-251, > 100 µM (inactive); with UACC-257, > 100 µM (inactive); in the assay on UACC-62, 32.4 µM (inactive).
Consider `O=C(CCC(=O)OCC1OC(O)(CC2OC(CO)C(O)C(O)C2O)C(O)C1O)OCc1ccccc1` (configuration not stated), for which the GI50 was > 100 µM (inactive) in the assay with 786-0; > 100 µM (inactive) with A549; 67.1 µM (inactive) in the assay with CCRF-CEM; over 100 µM in the assay with HCT-15; > 100 µM (inactive) with HT-29; > 100 µM (inactive) in the assay with M14. Further, the GI50 in the assay with NCI-H226, in the assay with NCI-H460, in the assay on OVCAR-3, with SK-MEL-2, in the assay with SK-MEL-5 and in the assay with SK-OV-3 was > 100 µM (inactive) in each case. Moreover, the GI50 with SNB-75, in the assay on SW-620, in the assay on TK-10, in the assay with U-251, in the assay with UACC-257 and in the assay with UACC-62 was > 100 µM (inactive) throughout.
